Measured values from patent publication US20080275058A1, “N-Substituted-1H-Quinoline-2,4-Diones, Preparation Method Thereof, And Pharmaceutical Composition Containing The Same” (KOREA RESEARCH INSTITUTE OF CHEMICAL TECHNOLOGY, priority 2005, published 2008).

Legend:
[1] = molecular target: T1, 5-HT2a (Homo sapiens, UniProt P28223); assay: Radioligand binding, 5-HT2a ([3H]Ketanserin); settings: Table 4; [3H]Ketanserin 1 nM; read-out: Binding affinity, IC50 (nM) 5-HT2a
T1 construct: purchased Euroscreen/BioSignal Packard Inc
T1 sequence (P28223 whole entry): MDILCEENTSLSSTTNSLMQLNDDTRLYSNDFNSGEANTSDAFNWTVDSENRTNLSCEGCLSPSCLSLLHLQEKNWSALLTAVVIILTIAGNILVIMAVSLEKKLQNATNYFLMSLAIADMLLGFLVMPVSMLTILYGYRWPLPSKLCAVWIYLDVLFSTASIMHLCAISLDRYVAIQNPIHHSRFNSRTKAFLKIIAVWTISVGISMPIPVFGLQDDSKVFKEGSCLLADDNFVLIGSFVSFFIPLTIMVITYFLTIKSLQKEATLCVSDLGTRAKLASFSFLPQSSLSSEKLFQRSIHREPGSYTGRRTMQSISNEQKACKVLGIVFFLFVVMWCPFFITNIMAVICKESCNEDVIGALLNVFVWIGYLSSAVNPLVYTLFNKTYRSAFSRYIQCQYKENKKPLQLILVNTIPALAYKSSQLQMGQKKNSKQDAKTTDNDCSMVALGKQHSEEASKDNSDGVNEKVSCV

[2] = molecular target: T2, 5-HT2c (Homo sapiens, UniProt P28335); assay: Radioligand binding, 5-HT2c ([3H]Mesulergine); settings: Table 4; [3H]Mesulergine 1 nM; read-out: Binding affinity, IC50 (nM) 5-HT2c
T2 construct: purchased Euroscreen/BioSignal Packard Inc
T2 sequence (P28335 33-458): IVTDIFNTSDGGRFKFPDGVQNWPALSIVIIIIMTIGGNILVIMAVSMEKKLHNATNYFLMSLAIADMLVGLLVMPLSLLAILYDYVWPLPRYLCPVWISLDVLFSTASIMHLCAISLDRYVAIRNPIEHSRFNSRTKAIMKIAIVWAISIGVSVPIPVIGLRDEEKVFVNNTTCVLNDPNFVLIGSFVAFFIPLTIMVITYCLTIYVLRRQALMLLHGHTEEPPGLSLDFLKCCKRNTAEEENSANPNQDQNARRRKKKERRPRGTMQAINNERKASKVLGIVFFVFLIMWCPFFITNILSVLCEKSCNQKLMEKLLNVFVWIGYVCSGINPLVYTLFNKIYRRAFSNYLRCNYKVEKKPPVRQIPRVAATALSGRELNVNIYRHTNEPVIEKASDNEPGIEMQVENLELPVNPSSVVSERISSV

[3] = system: rats; assay: Methamphetamine-induced disruption of prepulse inhibition (PPI) in rats; assay type: in vivo, rat; settings: administered 30 min before methamphetamine
Protocol: To assay antipsychotic properties of the compounds according to the invention, prepulse inhibition (PPI) of acoustic startle in animals was performed. Startle response was measured using SR-LAB startle chamber (San Diego Instruments, San Diego, USA). The animal enclosure was housed in a ventilated and sound-attenuated startle chamber with 60 dB ambient noise level, and consisted of a Plexiglas cylinder 40 mm in diameter on a platform, connected to a piezoelectric accelerometer which detects and transducer motion within the cylinder. Acoustic noise bursts were presented through a loudspeaker mounted 24 ? above the animal. […] Each startle session began with a 5-min acclimatization period in the chamber to 68 dB background noises. The test session consisting of the following four different trial types was carried for all experiments: a 40 ms broadband 120 dB burst (P; pulse alone trial), P preceded 100 ms earlier by a 20 ms noise burst 10 dB above background (pP; prepulse+pulse trial), a 40 ms broadband 78 dB burst (prepulse alone trial), and a no stimulus trial (background). Eight trials of each type were presented in a pseudorandom order (total32 trials) with an average interval of 15 sec. separating each trial. An extra 5 pulse-alone trials were presented at the beginning and end of each test session, but were not used in the calculation of PPI values. PPI was defined as the percent reduction in startle amplitude in the presence of prepulse compared to the amplitude in the absence of the prepulse using the following Math Equation 1. […] Differences were considered significant at P<0.05. Statistical analyses were conducted using SigmaStat software (SigmaStat, Jandel Co., San Rafael, Calif.). The data were expressed as means±SEM.

[4] = system: HeLa cells transfected with the human 5-HT6 receptor; assay: Cytotoxicity in HeLa cells transfected with the human 5-HT6 receptor; assay type: cell-based; settings: at the concentrations tested

SMILES | IC50 [1] | IC50 [2] | mean startle amplitude compared with methamphetamine group [3] | cytotoxicity [4]
COc1ccc(C2(C)C(=O)c3c(N4CCNCC4)cc(Cl)cc3N(Cc3ccccc3)C2=O)cc1 (racemic) [Example 13, 1-Benzyl-7-chloro-3-(4-methoxy-phenyl)-3-methyl-5-piperazin-1-yl-1H-quinoline-2,4-dione] | 543 nM | 437 nM | no significant differences | 
CC1(c2ccc(O)cc2)C(=O)c2c(N3CCNCC3)cc(Cl)cc2N(Cc2ccccc2)C1=O (racemic) [Example 14, 1-Benzyl-7-chloro-3-(4-hydroxy-phenyl)-3-methyl-5-piperazin-1-yl-1H-quinoline-2,4-dione] | 2140 nM | > 10000 nM | no significant differences | did not show any cytotoxicity
